From article PMC9013689, “Development of reconstructed intestinal micronucleus cytome (RICyt) assay in 3D human gut model for genotoxicity assessment of orally ingested substances” (Archives of Toxicology, 2022)
Several values for one entry are separate records, joined by “and”; a condition that tells them apart may be missing. Equal values may be shown once. Where a name gives a salt, the structure may show the parent alone. Read-outs that look alike come from different tables or passages of the source.

Legend:
3D EpiIntestinal™ tissue [1] = assay: Cytokinesis-blocked micronucleus analysis (CBMN) in EpiIntestinal™ tissue; assay type: cell-based, human; conditions: 6 μg/ml, apical and basolateral, 10 days
Experimental: The CBMN assay was conducted according to a previously published procedure (Fenech and Morley [1985b]). Briefly, cytochalasin B (5474, Tocris Bioscience, Bristol, UK, 6 μg/ml) was applied to the 3D EpiIntestinal™ in vitro tissues every other day, to the apical and to the basolateral compartments. […] The cell suspension was stored in fixative at 4 °C overnight, stained with acridine orange (1:100 dilution in 1 × PBS, A1301, Invitrogen; Thermo Fisher Scientific, Waltham, MA) and scored under fluorescence microscopy (Zeiss Axioimager, equipped with triple band excitation fluorescence filter set: DAPI, FITC and Texas red). Scoring was performed following the criteria developed by Fenech et al. (Fenech et al. [2003], [2007]). One thousand total cells per microtissue were scored to determine the percentage of cells with one (mononucleated) or two nuclei (binucleated). The results were generated from three independent experiments. Each experiment consisted of a single microtissue per dose.

3D EpiIntestinal™ tissue [2] = assay: Reconstructed intestine micronucleus cytome (RICyt) assay
Excerpt: EpiIntestinal™ tissue (SMI-200-FT v2.0) was purchased from MatTek Corporation® (Ashland, MA). The EpiIntestinal™ construct is a differentiated 3D tissue model that consists of intestinal villi and crypts topology resembling the normal human small intestine. […] The mature tissues are shipped sealed in 24-well agar-plugged plates to the designated laboratory (in this instance, Singapore). Upon receipt, the tissues are revived overnight in fresh SMI-100-MM before use in assays.
(§1) Test compound stock solutions were prepared in DMSO (D161802, Sigma Aldrich, St Louis, MO). For the 3D tissues, dilutions were made in complete culture media yielding ≤ 0.1% DMSO final concentration. Media containing 0.1% DMSO (i.e. without test article) were applied to tissues to serve as the vehicle control. All 3D tissues were treated apically every alternate day (from day 0–6) and daily (from day 7–9), while basolateral wells contain untreated culture media to support the tissue growth. TK6 cells were exposed for 24 h with the test materials prior to harvest.
(§2) 3D tissues were dissociated using human tumour dissociation kit (Miltenyl Biotec, Bergisch Gladbach, Germany), as per manufacturers’ instruction, with minor modifications. Individual 3D tissues cultured on microporous membranes were excised from the culture inserts and incubated for 15 min in cell recovery solution (Corning, Tewksbury, MA). The tissues were subsequently peeled off from the membrane with fine point forceps under stereo microscope (Leica Microsystems, Wetzlar, Germany). The peeled tissues were placed into gentleMACS C-tube (Miltenyi Biotech, Bergisch Gladbach, Germany) containing the enzyme mix described in the kit’s protocol. The tubes were then transferred into a gentleMACS octo dissociator with heater (Miltenyi Biotech, Bergisch Gladbach, Germany), and subjected to one cycle of ‘37C_m_LPDK_1’ program. Upon completion, the cell suspension was centrifuged at 1000 rpm for 5 min; the supernatant was removed and the pellet was resuspended in 2 mL of Hanks Balanced Salts Solution (HBSS). […] The proliferation of the 3D tissue was estimated through calculation of population doubling based on the dissociated cell number at the day 1, 6 and 11 after tissue revival. The cells were then (1) fixed for micronuclei scoring or (2) processed for subsequent experimentation.
Tissues were exposed to test substances, harvested and dissociated into single cell suspension as described above. Cell suspension samples were divided equally; half of the cell suspension sample was fixed in Carnoy’s solution with 3 fixation steps in methanol/acetic acid […], supplemented with formaldehyde at 1st fixation. The cell suspension was aged at least overnight at 4 °C to improve the quality of fixed cells. The remaining cells were incubated with 4% formaldehyde for 15 min, rinsed twice with 1 × PBS and stored in 4 °C. […] One thousand total cells were scored per microtissue to determine the frequency of MN and cytome. The percentage of MN and cytome at each concentration of test chemical was compared with the solvent control. The results were generated from three independent experiments. Each experiment consisted of a single microtissue per dose.

3D EpiIntestinal™ tissue [3] = conditions: human, 10 days
Experimental: as §1
as §2, with “revival.” for “revival. The cells were then (1) fixed for micronuclei scoring or (2) processed for subsequent experimentation.”

TK6 cells [4] = conditions: 24 h-exposure, dose not printed (Fig. 6b)
TK6 cells [5] = conditions: 24 h, comparable across all concentrations tested; DMSO control 0.7%
[6] = 50 ng/ml, apical, 10 days, Carnoy's fixative, mean ± SE
[7] = 250 ng/ml, apical, 10 days, Carnoy's fixative, mean ± SE
[8] = 500 ng/ml, apical, 10 days, Carnoy's fixative, mean ± SE

`C=C1[C@@H](C)[C@H]2[C@H](Cc3ccccc3)NC(=O)[C@]23OC(=O)/C=C/[C@H](O)CCC[C@@H](C)C/C=C/[C@H]3[C@@H]1O` [Cyt-B, cytochalasin B] was tested, and the “cells containing BN (binucleated)” value (3D EpiIntestinal™ tissue [1]) was 8.1% and ~ 8.1% and the mononuclear cells (3D EpiIntestinal™ tissue [1]) was 91.9%.

For `c1ccc2c(c1)cc1ccc3cccc4ccc2c1c34` [benzo(a)pyrene], the “BN, binucleated cells” value (3D EpiIntestinal™ tissue [2]; human, 10 days, 6.25 μg/ml) was 1.30 ± 0.12%, the “CC, condensed chromatin” value (3D EpiIntestinal™ tissue [2]; human, 10 days, 6.25 μg/ml) was 0.13 ± 0.03% and the “KL, karyolysis” value (3D EpiIntestinal™ tissue [2]; human, 10 days, 6.25 μg/ml) was 0.60 ± 0.25%. For the same compound, the “KR, karyorrhexis” value (3D EpiIntestinal™ tissue [2]; human, 10 days, 6.25 μg/ml) was 5.59 ± 0.41 %, the “Mono, mononucleated cells (basal and differentiated)” value (“Mono … (basal and differentiated)” for short) (3D EpiIntestinal™ tissue [2]; human, 10 days, 6.25 μg/ml) was 89.96 ± 0.56% and the “PY, pyknosis” value (3D EpiIntestinal™ tissue [2]; human, 10 days, 6.25 μg/ml) was 0.23 ± 0.03%. For the same compound, the “BN, binucleated cells” value (3D EpiIntestinal™ tissue [2]; human, 10 days, 12.5 μg/ml) was 1.80 ± 0.38%, the “CC, condensed chromatin” value (3D EpiIntestinal™ tissue [2]; human, 10 days, 12.5 μg/ml) was 0.37 ± 0.22% and the “KL, karyolysis” value (3D EpiIntestinal™ tissue [2]; human, 10 days, 12.5 μg/ml) was 0.63 ± 0.23%. For the same compound, the “KR, karyorrhexis” value (3D EpiIntestinal™ tissue [2]; human, 10 days, 12.5 μg/ml) was 7.27 ± 1.07%, the “Mono … (basal and differentiated)” value (3D EpiIntestinal™ tissue [2]; human, 10 days, 12.5 μg/ml) was 85.87 ± 1.30% and the “PY, pyknosis” value (3D EpiIntestinal™ tissue [2]; human, 10 days, 12.5 μg/ml) was 0.40 ± 0.21%. The “BN, binucleated cells” value (3D EpiIntestinal™ tissue [2]; human, 10 days, 25 μg/ml) was 0.99 ± 0.29%, the “CC, condensed chromatin” value (3D EpiIntestinal™ tissue [2]; human, 10 days, 25 μg/ml) was 0.20 ± 0.10% and the “KL, karyolysis” value (3D EpiIntestinal™ tissue [2]; human, 10 days, 25 μg/ml) was 0.40 ± 0.20%. The “KR, karyorrhexis” value (3D EpiIntestinal™ tissue [2]; human, 10 days, 25 μg/ml) was 6.24 ± 0.06 %, the “Mono … (basal and differentiated)” value (3D EpiIntestinal™ tissue [2]; human, 10 days, 25 μg/ml) was 88.11 ± 1.01% and the “PY, pyknosis” value (3D EpiIntestinal™ tissue [2]; human, 10 days, 25 μg/ml) was 0.56 ± 0.33%. For the same compound, the “doses with significant decreases in cell population” value (3D EpiIntestinal™ tissue [3]) was no less than 6.25 µg/mL.

Compound `CO[C@@]12[C@H](COC(N)=O)C3=C(C(=O)C(C)=C(N)C3=O)N1C[C@@H]1N[C@@H]12` [mitomycin C] has a population decline (TK6 cells [4]) of 55%.

In the case of `[H]/N=C(/N)N/C(=N/[H])NCCc1ccccc1` [phenformin HCl, Phenformin HCl], the RICyt assay outcome (3D EpiIntestinal™ tissue [2]) is reported as “inactive”, the “prevalence of MN” value (3D EpiIntestinal™ tissue [2]; 10 days' exposure, DMSO control […]) is reported as ~ 1% and the “loss of viable cell populations” value (3D EpiIntestinal™ tissue [3]; 62.5 µg/ml) is reported as 40%. For the same compound, the “loss of viable cell populations” value (3D EpiIntestinal™ tissue [3]; 125 µg/ml) was 45%, the “loss of viable cell populations” value (3D EpiIntestinal™ tissue [3]; 250 µg/ml) was 60% and the “prevalence of MN in TK6 cells” value (TK6 cells [5]) was ~ 0.6%.

With `CC[C@]1(O)C[C@@H]2CN(CCc3c([nH]c4ccccc34)[C@@](C(=O)OC)(c3cc4c(cc3OC)N(C)[C@H]3[C@@](O)(C(=O)OC)[C@H](OC(C)=O)[C@]5(CC)C=CCN6CC[C@]43[C@@H]65)C2)C1` [vinblastine sulphate] the “BN, binucleated cells” value (3D EpiIntestinal™ tissue [2]; [6]) was 0.77 ± 0.12%, the “Buds, nuclear buds” value (3D EpiIntestinal™ tissue [2]; [6]) was 0.63 ± 0.29% and the “CC, condensed chromatin” value (3D EpiIntestinal™ tissue [2]; [6]) was 0.07 ± 0.03%. The “KL, karyolysis” value (3D EpiIntestinal™ tissue [2]; [6]) was 1.23 ± 0.74%, the “KR, karyorrhexis” value (3D EpiIntestinal™ tissue [2]; [6]) was 4.90 ± 0.63% and the “MN, micronuclei” value (3D EpiIntestinal™ tissue [2]; [6]) was 2.71 ± 0.44%. The “Mono … (basal and differentiated)” value (3D EpiIntestinal™ tissue [2]; [6]) was 89.09 ± 1.25%, the “PY, pyknosis” value (3D EpiIntestinal™ tissue [2]; [6]) was 0.6 ± 0.12% and the “BN, binucleated cells” value (3D EpiIntestinal™ tissue [2]; [7]) was 0.86 ± 0.38%. For the same compound, the “Buds, nuclear buds” value (3D EpiIntestinal™ tissue [2]; [7]) was 0.53 ± 0.28%, the “CC, condensed chromatin” value (3D EpiIntestinal™ tissue [2]; [7]) was 0.15 ± 0.13% and the “KL, karyolysis” value (3D EpiIntestinal™ tissue [2]; [7]) was 1.82 ± 1.01%. The “KR, karyorrhexis” value (3D EpiIntestinal™ tissue [2]; [7]) was 4.75 ± 1.30%, the “MN, micronuclei” value (3D EpiIntestinal™ tissue [2]; [7]) was 3.11 ± 0.36 % and the “Mono … (basal and differentiated)” value (3D EpiIntestinal™ tissue [2]; [7]) was 87.14 ± 2.07%. For the same compound, the “PY, pyknosis” value (3D EpiIntestinal™ tissue [2]; [7]) was 1.66 ± 0.49%, the “BN, binucleated cells” value (3D EpiIntestinal™ tissue [2]; [8]) was 0.94 ± 0.49% and the “Buds, nuclear buds” value (3D EpiIntestinal™ tissue [2]; [8]) was 0.50 ± 0.16%. For the same compound, the “CC, condensed chromatin” value (3D EpiIntestinal™ tissue [2]; [8]) was 0.17 ± 0.02 %, the “KL, karyolysis” value (3D EpiIntestinal™ tissue [2]; [8]) was 1.79 ± 1.05% and the “KR, karyorrhexis” value (3D EpiIntestinal™ tissue [2]; [8]) was 6.48 ± 2.52%. For the same compound, the “MN, micronuclei” value (3D EpiIntestinal™ tissue [2]; [8]) was 3.46 ± 0.16 %, the “Mono … (basal and differentiated)” value (3D EpiIntestinal™ tissue [2]; [8]) was 84.89 ± 3.06% and the “PY, pyknosis” value (3D EpiIntestinal™ tissue [2]; [8]) was 1.77 ± 0.77%. For the same compound, the “frequency of pyknotic and karyolytic cells” value (3D EpiIntestinal™ tissue [2]; apical, 10 days) was “increased” and the “doses with significant decreases in cell population” value (3D EpiIntestinal™ tissue [3]) was 0.5 µg/mL.
